The source of these data is ChEMBL document CHEMBL5154658, “Discovery of quinazoline derivatives as novel small-molecule inhibitors targeting the programmed cell death-1/programmed cell death-ligand 1 (PD-1/PD-L1) interaction” (Eur J Med Chem, 2022).

The target of data set [1] is T1, Programmed cell death protein 1/Programmed cell death 1 ligand 1 (Homo sapiens, UniProt Q15116+Q9NZQ7). Kind of data set: Inhibition of Tag2-PD-1/Tag1-PD-L1 (unknown origin) protein-protein interaction incubated for 15 mins by HTRF assay. The class given is protein-complex assay. A general note: In TR-FRET formats the signal depends on donor and acceptor labels being close together.

In data set [2] the target is T1, Programmed cell death protein 1/Programmed cell death 1 ligand 1. Kind of data set: Inhibition of C-terminal-Fc-tagged human recombinant PD-1 (25 to 167 residues)/C-terminal-His-tagged recombinant human PD-L1 (19 to 238 residues) interaction incubated for 40 mins by HTRF assay. The class given is protein-complex assay.
For data set [3] the target is unchanged. Nature of the data set: Inhibition of PD-1/PD-L1 interaction in CHO cells expressing PD-Ll/TCR cocultured with human Jurkat cells expressing PD-1 assessed as T-cell activation by measuring maximum relative luminescence intensity value at 10 uM incubated for 6 hrs by luciferase reporter gene assay. The class given is cell-based. (In general: Reporter assays use an easily measured gene product as a stand-in for the process of interest.)

Data set [4] can be described thus: Cytotoxicity against human PBMC cells assessed as reduction in cell growth incubated for 72 hrs by CCK8 assay. Type of data set: toxicity, cell-based.
Data set [5] concerns the target T1, Programmed cell death protein 1/Programmed cell death 1 ligand 1. Kind of data set: Inhibition of PD-1/PD-L1 interaction in human CD3+ T-cells co-cultured with Hep3B cells expressing OS8/hPD-L1 assessed as increase in IFN-gamma secretion measured after 72 hrs by ELISA. The conditions noted are these: dose 0.082-2.222 µM, DDE = dose-dependent effect.
The target is the same in data set [6]. Kind of data set: Inhibition of PD-1/PD-L1 interaction in human CD3+ T-cells co-cultured with Hep3B cells expressing OS8/hPD-L1 assessed as increase in IFN-gamma secretion at 2.22 uM measured after 72 hrs by ELISA. Details: scale not given: the % may be the effect or the level left.
Data set [7] is described as follows: Cytotoxicity against human PBMC cells assessed as reduction in cell growth at 0.003 to 2.22 uM incubated for 72 hrs by CCK8 assay. The note with it: dose 0.003-2.22 µM. The class given is toxicity, cell-based. Background: Tetrazolium assays rely on reduction of a dye to a coloured formazan, in cell work by metabolically active cells.
A short description of data set [8]: Cytotoxicity against human PBMC cells assessed as reduction in cell growth at >2.22 uM incubated for 72 hrs by CCK8 assay. Type of data set: toxicity, cell-based.
For data set [9], the target named is Programmed cell death 1 ligand 1 (Homo sapiens) (UniProt Q9NZQ7). Nature of the data set: Binding affinity to human PD-L1 assessed as change in melting temperature at 10 uM by thermal shift based DSF assay.
Data set [10] shares this target. Nature of the data set: Binding affinity to human PD-L1 assessed as change in melting temperature at 20 uM by thermal shift based DSF assay.
Data set [11] shares this target. Kind of data set: Binding affinity to human PD-L1 assessed as change in melting temperature at 50 uM by thermal shift based DSF assay.
In data set [12] the target is T1, Programmed cell death protein 1/Programmed cell death 1 ligand 1. Nature of the data set: Inhibition of PD-1/PD-L1 (unknown origin) interaction. Type of data set: protein-complex assay.

Usually IC50 stands for the midpoint of a concentration-inhibition curve. As usually defined, the ΔTm is the change in melting temperature against a reference sample.

Programmed cell death 1 ligand 1 (Homo sapiens), sequence (Q9NZQ7 whole entry): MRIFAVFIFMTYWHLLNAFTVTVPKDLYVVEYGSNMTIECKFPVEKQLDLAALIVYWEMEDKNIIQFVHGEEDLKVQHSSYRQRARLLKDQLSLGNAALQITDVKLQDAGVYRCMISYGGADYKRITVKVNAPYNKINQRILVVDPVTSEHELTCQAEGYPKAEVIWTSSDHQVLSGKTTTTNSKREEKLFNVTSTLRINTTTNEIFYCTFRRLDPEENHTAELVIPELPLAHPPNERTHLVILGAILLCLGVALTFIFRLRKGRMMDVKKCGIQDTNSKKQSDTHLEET
T1 sequence (Q15116 whole entry): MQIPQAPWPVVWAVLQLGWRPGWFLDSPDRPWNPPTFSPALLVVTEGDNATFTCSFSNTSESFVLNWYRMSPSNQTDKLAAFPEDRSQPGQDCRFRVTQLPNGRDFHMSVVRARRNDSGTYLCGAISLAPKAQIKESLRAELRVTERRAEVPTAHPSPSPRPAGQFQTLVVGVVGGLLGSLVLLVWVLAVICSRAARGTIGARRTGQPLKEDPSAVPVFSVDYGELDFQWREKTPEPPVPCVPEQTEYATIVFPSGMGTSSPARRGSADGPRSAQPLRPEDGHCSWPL
T1 sequence (Q9NZQ7 whole entry): as the sequence (Q9NZQ7 whole entry) above

As for `CC(=O)NCCNCc1cc(Cl)c(Oc2ncnc3c(-c4ccccc4)cccc23)cc1OCc1cccc(C#N)c1`, in data set [1], the half-maximal inhibitory concentration (IC50) was more than 500 nM.

As for `CC(C)(NCc1cc(Cl)c(Oc2ncnc3c(-c4ccc5c(c4)OCCO5)cccc23)cc1OCc1cccc(C#N)c1)C(=O)O`, half-maximal inhibition in [1] (IC50) was put at 88.6 nM.

`N#Cc1cccc(COc2cc(Oc3ncnc4c(-c5ccc6c(c5)OCCO6)cccc34)c(Cl)cc2CN2CCCC[C@H]2C(=O)O)c1` gave an IC50 in [1] of more than 500 nM.

For the compound `N#Cc1cccc(COc2cc(Oc3ncnc4c(-c5ccc6c(c5)OCCO6)cccc34)c(Cl)cc2CNC(CO)CO)c1`, half-maximal inhibition in data set [1] (IC50) was put at 31.1 nM.

As to `Cc1c(-c2ccccc2)cccc1-c1nc2cc(CNCCO)ccc2o1`, in [2], the half-inhibitory concentration (IC50) was not above 10 nM.

As for `N#Cc1cccc(COc2cc(Oc3ncnc4c(-c5ccccc5)cccc34)c(Cl)cc2CN2CCCC[C@H]2C(=O)O)c1`, the IC50 in data set [1] was more than 500 nM.

Turning to `CC(CO)(CO)NCc1cc(Cl)c(Oc2ncnc3c(-c4ccccc4)cccc23)cc1OCc1cccc(C#N)c1`, in data set [1], the IC50 was 22.9 nM.

Compound `CC(C)(NCc1cc(Cl)c(Oc2ncnc3c(-c4ccccc4)cccc23)cc1OCc1cccc(C#N)c1)C(=O)O` returned an IC50 in data set [1] of 150 nM.

`N#Cc1cccc(COc2cc(Oc3ncnc4c(-c5ccc6c(c5)OCCO6)cccc34)c(Cl)cc2CN2CCCC[C@@H]2C(=O)O)c1` came in with a half-maximal inhibitory concentration (IC50) in data set [1] of 411 nM.

`N#Cc1cccc(COc2cc(Oc3ncnc4c(-c5ccccc5)cccc34)c(Cl)cc2CN2CCCC[C@@H]2C(=O)O)c1`: the IC50 in data set [1] was more than 500 nM.

As for `N#Cc1cncc(COc2cc(Oc3ncnc4c(-c5ccc6c(c5)OCCO6)cccc34)c(Cl)cc2CNC(CO)CO)c1`, the midpoint of inhibition in data set [1], the IC50, lay at 5.37 nM. For the same compound, the RLU in data set [3] is 3370. Moreover, the 50% inhibitory concentration (IC50) at 72 h in [4] is 5310 nM. Moreover, the inhibition entry in data set [5] was “Dde”. The Activity in data set [6] is 654%; in [7], “Non-Toxic”; in data set [8] it was “Toxic”.

`CC(=O)NCCNCc1cc(Cl)c(Oc2ncnc3c(-c4ccc5c(c4)OCCO5)cccc23)cc1OCc1cncc(C#N)c1`: the half-maximal inhibitory concentration (IC50) in [1] came out at 96 nM.

With `CC(=O)NCCNCc1cc(Cl)c(Oc2ncnc3c(-c4ccccc4)cccc23)cc1OCc1cncc(C#N)c1`, the IC50 in data set [1] was determined as 187 nM.

Consider `CC(=O)NCCNCc1cc(Cl)c(Oc2ncnc3c(-c4ccc5c(c4)OCCO5)cccc23)cc1OCc1cccc(C#N)c1`, for which the IC50 in data set [1] is more than 500 nM.

For the compound `CC(CO)(CO)NCc1cc(Cl)c(Oc2ncnc3c(-c4ccccc4)cccc23)cc1OCc1cncc(C#N)c1`, in [1], the IC50 turned out to be 32.5 nM.

In turn, `N#Cc1cncc(COc2cc(Oc3ncnc4c(-c5ccc6c(c5)OCCO6)cccc34)c(Cl)cc2CNCCO)c1` displayed a 50% inhibitory concentration (IC50) in data set [1] of 12.2 nM.

In turn, `CC(CO)(CO)NCc1cc(Cl)c(Oc2ncnc3c(-c4ccc5c(c4)OCCO5)cccc23)cc1OCc1cncc(C#N)c1` registered a half-inhibitory concentration (IC50) in data set [1] of 1.57 nM. For the same compound, the shift in melting temperature (ΔTm) in data set [9] came out at 2.35 °C; in data set [10], 3.2 °C; in data set [11], 3.25 °C. Moreover, the RLU in data set [3] is 3120. In addition, the half-inhibitory concentration (IC50) at 72 h in [4] was 12400 nM. In [5], the inhibition result is “Dde”. The figures for the Activity in data set [6], in [7] and in [8] were 820%, “Non-Toxic” and “Toxic”, respectively.

In data set [1], `N#Cc1cccc(COc2cc(Oc3ncnc4c(-c5ccccc5)cccc34)c(Cl)cc2CNC(CO)CO)c1` displayed an IC50 of 24.2 nM.

In turn, `N#Cc1cncc(COc2cc(Oc3ncnc4c(-c5ccccc5)cccc34)c(Cl)cc2CNCCO)c1` gave an IC50 in [1] of 171 nM.

Consider `CC(CO)(CO)NCc1cc(Cl)c(Oc2ncnc3c(-c4ccc5c(c4)OCCO5)cccc23)cc1OCc1cccc(C#N)c1`, for which half-maximal inhibition in data set [1] (IC50) was put at 18.8 nM.

With `N#Cc1cccc(COc2cc(Oc3ncnc4c(-c5ccccc5)cccc34)c(Cl)cc2CNCCO)c1`, the IC50 in data set [1] was 78.5 nM.

For the compound `N#Cc1cncc(COc2cc(Oc3ncnc4c(-c5ccccc5)cccc34)c(Cl)cc2CNC(CO)CO)c1`, in [1], the half-maximal inhibitory concentration (IC50) was 57.6 nM.

`CC(C)OC(=O)[C@H](CO)NCc1cc(Cl)c(OCc2cccc(-c3ccc4c(c3)OCCO4)c2Br)cc1OCc1cccnc1` showed a concentration for half-maximal inhibition (IC50) in data set [12] of 10 nM.

`N#Cc1cccc(COc2cc(Oc3ncnc4c(-c5ccc6c(c5)OCCO6)cccc34)c(Cl)cc2CNCCO)c1` returned a 50% inhibitory concentration (IC50) in data set [1] of 22.4 nM.
